Source: patent US20120095024A1, “TOLUIDINE SULFONAMIDES AND THEIR USE” (Elara Pharmaceuticals GmbH, priority 2008, published 2012)

How the values were obtained:
tubulin = target: T1, tubulin (Sus scrofa, UniProt P02550+P02554); test: Inhibition of in vitro tubulin polymerization; assay type: biochemical, porcine; conditions: final absorbance 340 nm at 90 min
T1 construct: prepared in-house from porcine brain using a standard procedure involving cycles of polymerization/de-polymerization; from tissue; host or cells: porcine brain
Protocol: To assess the degree of inhibition of in vitro tubulin polymerization, a tubulin solution (prepared in-house from porcine brain using a standard procedure involving cycles of polymerization/de-polymerization, see Castoldi & Popov (2003) Protein Expr. Purif. 32(1): 83-88) was incubated with varying concentrations of compounds under polymerizing conditions and kinetic experiments performed to determine the amount of polymerization (as measured by changes in OD at 340 nm) taking place over a 90 min period.
Compound solutions were diluted in double-distilled water to yield final 10× solutions containing 5% DMSO. 5 μl solutions were then added to the wells on a 384-well clear-bottom plate (Corning #3711, Corning Inc.) in preparation for the addition of tubulin. The tubulin solution (19.6 mg/ml, in 80 mM K-PIPES [pH 6.8], 1 mM MgCl2, 1 mM EGTA) was re-suspended to a final concentration of 4 mg/ml with ice cold G-PEM buffer (80 mM PIPES [pH 6.8], 2 mM MgCl2, 0.5 mM EGTA, 10% glycerol, 1 mM GTP) and maintained on ice for at least 1 min. 50 μl was then added to the pre-dispensed compound solutions, the plate orbital shaken on a medium setting for 5 s, and the first measurement begun immediately.
Experiments were carried out on a Safire^2™ monochromator (Tecan) preset to a stable temperature of 37° C.; the degree of polymerization was determined by measuring the absorbance of the solutions at 340 nm every minute over the 90 min cycle. Reported inhibition values were based on the final absorbance at 90 min and calculated with reference to a vehicle control (0.5% DMSO) using the minimum and maximum signals obtained for this sample.

[1] = system: HIF mediated transcription; test: Inhibition of activation of HIF mediated transcription under hypoxic conditions (CellSensor HRE-bla HCT-116); assay type: cell-based; conditions: Homo sapiens; HRE-bla HCT-116 cells, deferoxamine-induced hypoxia, 24 h
Protocol: Inhibition of an activated HIF signaling response under chemically-induced hypoxic conditions due to compound treatment was determined using the CellSensor® HRE-bla HCT-116 stably transfected reporter cell line from Invitrogen according to the manufacturer's instructions. HIF is a transcriptional factor composed of the constitutively expressed HIF1β subunit and one of three HIFα subunits (HIF1α, HIF2α, HIF3α). This assay is responsive towards HIFa activity in general. In one example, HIF-1, when stabilized by hypoxic conditions, upregulates several genes to promote cell survival in low-oxygen conditions. These include glycolysis enzymes, which allow ATP synthesis in an oxygen-independent manner, and vascular endothelial growth factor (VEGF), which promotes angiogenesis. HIF-1 acts by binding to HIF-responsive elements (HREs) in promoters that generally contain the sequence NCGTG.
Cells were maintained as described previously and seeded into 384-well, clear-bottom plates (Corning 3712) at 15000 cells/well in 32 μl assay medium (Opti-MEM [Invitrogen], 0.5% FBS, 100 U/ml penicillin, 100 μg/ml streptomycin, 0.1 mM non-essential amino acids [NEAA], 1 mM sodium pyruvate, 5 mM HEPES [pH 7.3]). Following a 2 h incubation period, compounds (4 μl) were subsequently added to the cells at 10× concentrations in 5% DMSO and incubated under normal conditions for 30 min. To induce hypoxic conditions, 4 μl of a 2 mM deferoxamine (DFO) solution was added to the cells followed by 24 h incubation under standard assay conditions (as described). Control wells included wells containing only medium (no cells) and wells treated with 0.5% DMSO instead of compound.
Prior to the readout, the Substrate Loading Solution was prepared as described in the manufacturer's protocol and 10 μl added to each well. Following a further 2 h incubation period at room temperature and in the dark, fluorescence was measured at two wavelengths (blue channel: ex. 409 nm, em. 460 nm; green channel: ex. 409 nm, em. 530 nm) on a PerkinElmer Envision HTS. For the analysis, the average signal of the cell-free wells at 460 nm and 530 nm was first subtracted from the blue and green channel data, respectively. The blue/green emission ratios were then calculated for each well, dividing the background-corrected blue emission values by the background-corrected green emission values. IC50 values were determined from these ratios using GraphPad Prism (Prism 5, GraphPad software, Inc.).

MCF7 cells = test: Cell proliferation assay (ATPlite), MCF-7; assay type: cell-based, human; conditions: Homo sapiens, inhibition of cell proliferation, 72 h
Method in brief: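 Cells seeded (MCF-7 2000/well, HG-1 1000/well in RPMI with 2 ng/ml IL-6), then after 24 h exposed to compound at 0.5% DMSO final for 72 h. Proliferation read as ATP luminescence (ATPlite); EC50 calculated from the dose-response.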

[2] = system: estrogen receptor (ER)-mediated transcriptional activity; test: Inhibition of estrogen receptor (ER) signaling, ERE-tk-luc transfection assay in MCF-7 cells; assay type: cell-based; conditions: Homo sapiens, MCF7, ERE-tk-luc luciferase readout, 24 h
Protocol: To determine the effect of the compounds on estrogen receptor (ER)-mediated transcriptional activity a transfection assay using the MCF-7 cell line was performed. A luciferase-coupled ERE-tk-luc construct was obtained from Dr. G. Reid (EMBL).
In brief, MCF-7 cells were maintained as described previously and seeded on the first experimental day at a concentration of 3500 cells/well in 100 μl medium and incubated under standard conditions for 24 h. Following this initial incubation period, transfection was carried out using 5 ng of the ERE-tk-luc construct (per well) and Exgene 500 transfection reagent (Fermentas) in a final buffered solution containing 150 mM NaCl and 20 mM Tris pH 8.4. The plates were then maintained for 3-4 hours until cell culture conditions in the incubator before compounds were added at 11× concentrations to yield the final desired compound concentrations in 0.5% DMSO (in the same manner as for the proliferation assays described previously).
After an additional 24 h incubation period the degree of inhibition of ER-signaling was determined via a luciferase readout. Cells were treated with Britelite™ plus solution according to the manufacturer's instructions (PerkinElmer, britelite plus, Ultra-High Sensitivity Luminescence Reporter Gene Assay System) and luciferase levels measured on an Envision HTS multilabel plate reader (PerkinElmer) in luminescence mode according to established protocols. Raw data were imported into an ActivityBase database (IDBS, ID Business Solutions) and IC50 values calculated using the IDBS program ActivityBase XE.

HG1 cells = test: Cell proliferation assay (ATPlite), HG-1; assay type: cell-based; conditions: inhibition of cell proliferation, 72 h
Protocol: MCF-7 human breast adenocarcinoma cells and HL-60 acute promyelocytic leukaemia cells were obtained from ATCC (LGC Promochem). HG-1 multiple myeloma cells were obtained from Dr. D. Hose (DKFZ Heidelberg). The CellSensor® HRE-bla HCT116 cell line (colorectal carcinoma) was obtained from Invitrogen.
Cells were grown under humidified 95% air, 5% CO2 at 37° C. in Dulbecco's modified Eagle's medium (DMEM: MCF-7) or RPMI 1640 medium (RPMI: HL-60, HG-1) supplemented with 10% fetal bovine serum (FBS), 100 U/ml penicillin and 100 μg/ml streptomycin, 2 mM L-glutamine, and 2 ng/ml IL-6 (for the HG-1 cell line only). The HCT116 cell line was grown under the same atmospheric conditions in McCoy's 5A medium supplemented with 10% FBS and penicillin/streptomycin as above, in addition to blasticidin as a selection marker at a final concentration of 5 μg/ml.
Cell proliferation experiments were carried out in 96-well tissue culture plates with seeding of 2000 cells/well (MCF-7) or 1000 cells/well (HL-60, HG-1) in 100 μl of the relevant medium. Cells were subsequently incubated under the conditions mentioned for 24 h prior to addition of compounds.
For the determination of compound EC50 values, 10 μl compounds at 11× concentrations in 5.5% DMSO were added to the wells at various concentrations yielding a final constant percentage of 0.5% DMSO at the desired 1× compound concentration. As a positive control, cells were treated with 5.5% DMSO. The cells were then incubated for a further 72 h prior to the measurement.
To determine the degree of inhibition of cell proliferation, cells were treated with ATPlite solution according to the manufacturer's instructions (PerkinElmer, ATPlite 1-step Luminescence ATP Detection Assay System) and luciferase readout measured on an Envision HTS multilabel plate reader (PerkinElmer) in luminescence mode according to established protocols. Raw data were imported into an ActivityBase database (IDBS, ID Business Solutions) and EC50 values calculated using the IDBS program ActivityBase XE. Table 2A and 2B show the IC50 values obtained in the above-outlined cell proliferation assay for exemplary compounds of the invention.

caspase-3/7 = test: Activation of apoptosis, Caspase-Glo 3/7 in HG-1 cells; assay type: cell-based; conditions: caspase-3/7 activation, 24 h
Protocol: Activation of caspase-3/7 signal following treatment with test compounds was carried out using a Caspase-Glo® 3/7 kit (Promega). In brief, HG-1 cells were seeded at a concentration of 1000 cells/well in 50 μl medium into 96-well plates and incubated for 24 h under the conditions described previously. Compounds at various concentrations were then added to the wells (at all final concentrations 0.5% DMSO) and incubated for a further 24 h period. The plates were subsequently removed from the incubator and allowed to equilibrate to room temperature, after which 50 μl Caspase-Glo reagent was added to all wells, the plate shaken at 300 rpm for 30 s, and luminescence measured after a 30 min incubation period on an Envision HTS (PerkinElmer).

T1 sequence (P02550 whole entry): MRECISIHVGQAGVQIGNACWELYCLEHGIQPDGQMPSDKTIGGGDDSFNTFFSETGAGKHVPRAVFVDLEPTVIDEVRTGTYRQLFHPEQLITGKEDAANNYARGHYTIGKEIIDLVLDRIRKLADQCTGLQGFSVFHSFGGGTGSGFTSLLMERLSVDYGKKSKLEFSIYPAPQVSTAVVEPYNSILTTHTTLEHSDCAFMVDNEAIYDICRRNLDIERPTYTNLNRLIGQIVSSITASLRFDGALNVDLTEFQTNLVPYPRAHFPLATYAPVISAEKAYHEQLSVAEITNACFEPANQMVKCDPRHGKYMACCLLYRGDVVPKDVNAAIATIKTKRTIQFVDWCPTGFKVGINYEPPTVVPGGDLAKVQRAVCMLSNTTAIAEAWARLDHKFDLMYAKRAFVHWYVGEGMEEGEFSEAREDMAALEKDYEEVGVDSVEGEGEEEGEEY
T1 sequence (P02554 whole entry): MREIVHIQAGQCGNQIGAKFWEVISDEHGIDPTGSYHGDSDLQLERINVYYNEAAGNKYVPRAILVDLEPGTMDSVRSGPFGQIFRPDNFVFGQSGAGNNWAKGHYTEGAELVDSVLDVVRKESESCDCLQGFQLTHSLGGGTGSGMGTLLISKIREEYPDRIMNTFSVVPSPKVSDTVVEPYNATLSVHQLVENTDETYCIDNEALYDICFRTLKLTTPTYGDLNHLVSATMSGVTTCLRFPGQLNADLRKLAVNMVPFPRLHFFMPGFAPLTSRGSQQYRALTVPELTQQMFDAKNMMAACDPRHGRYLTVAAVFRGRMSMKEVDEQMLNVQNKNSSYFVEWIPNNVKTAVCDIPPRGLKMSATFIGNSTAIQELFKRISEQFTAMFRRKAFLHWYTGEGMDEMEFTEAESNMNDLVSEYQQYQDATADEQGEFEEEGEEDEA

SMILES | inhibition at 10 µM (tubulin) | EC50 [1] | EC50 (MCF7 cells) | IC50 [2] | EC50 (HG1 cells) | EC50 (caspase-3/7)
Cc1ccc(S(=O)(=O)Nc2cc(-c3ccc(C)o3)ccc2C)cc1 [Example 3, 4-Methyl-N-[2-methyl-5-(5-methyl-furan-2-yl)-phenyl]-benzenesulfonamide] | > 50% | < 500 nM | < 500 nM | – | – | –
Cc1ccc(S(=O)(=O)Nc2cc(-c3ccoc3)ccc2C)cc1 [Example 5, N-(5-Furan-3-yl-2-methyl-phenyl)-4-methyl-benzenesulfonamide] | – | – | < 500 nM | < 500 nM | – | –
Cc1ccc(S(=O)(=O)Nc2cc(-c3ccsc3)ccc2C)cc1 [Example 8, 4-Methyl-N-(2-methyl-5-thiophen-3-yl-phenyl)-benzenesulfonamide] | – | < 500 nM | < 500 nM | – | < 500 nM | –
Cc1ccc(S(=O)(=O)Nc2cc(-c3ccc(C)s3)ccc2C)cc1 [Example 11, 4-Methyl-N-[2-methyl-5-(5-methyl-thiophen-2-yl)-phenyl]-benzenesulfonamide] | 20 to 50% | – | < 500 nM | – | – | –
Cc1ccc(S(=O)(=O)Nc2cc(-n3cccc3)ccc2C)cc1 [Example 15, 4-Methyl-N-(2-methyl-5-pyrrol-1-yl-phenyl)-benzenesulfonamide] | – | – | < 500 nM | < 500 nM | < 500 nM | –
COc1ccc(S(=O)(=O)Nc2cc(-c3c(C)noc3C)ccc2C)cc1 [Example 16, N-[5-(3,5-Dimethyl-isoxazol-4-yl)-2-methyl-phenyl]-4-methoxy-benzenesulfonamide] | 20 to 50% | – | < 500 nM | – | – | –
Cc1ccc(S(=O)(=O)Nc2cc(-c3ccccn3)ccc2C)cc1 [Example 19, 4-Methyl-N-(2-methyl-5-pyridin-2-yl-phenyl)-benzenesulfonamide] | – | – | 500 to 1000 nM | – | < 500 nM | –
Cc1ccc(S(=O)(=O)Nc2cc(-n3cnnc3)ccc2C)cc1 [Example 22, 4-Methyl-N-(2-methyl-5-[1,2,4]triazol-4-yl-phenyl)-benzenesulfonamide] | – | – | 1000 to 10000 nM | – | < 500 nM | –
Cc1ccc(S(=O)(=O)Nc2cc(-c3cscc3C)ccc2C)cc1 [Example 23, 4-Methyl-N-[2-methyl-5-(4-methyl-thiophen-3-yl)-phenyl]-benzenesulfonamide] | > 50% | < 500 nM | < 500 nM | – | – | –
Cc1ccc(S(=O)(=O)Nc2cc(-c3ccc(C#N)cn3)ccc2C)cc1 [Example 43, N-[5-(5-Cyano-pyridin-2-yl)-2-methyl-phenyl]-4-methyl-benzenesulfonamide] | – | < 500 nM | < 500 nM | < 500 nM | – | –
COc1ccc(S(=O)(=O)Nc2cc(-c3ccc(C#N)cn3)ccc2C)cc1 [Example 49, N-[5-(5-Cyano-pyridin-2-yl)-2-methyl-phenyl]-4-methoxy-benzenesulfonamide] | – | – | < 500 nM | < 500 nM | – | –
COc1ccc(S(=O)(=O)Nc2cc(-c3cc(C#N)cs3)ccc2C)cc1 [Example 56, N-[5-(4-Cyano-thiophen-2-yl)-2-methyl-phenyl]-4-methoxy-benzenesulfonamide] | > 50% | – | < 500 nM | – | – | < 500 nM
COc1ccc(S(=O)(=O)Nc2cc(-c3ccc(C#N)cc3)ccc2C)cc1 [Example 63, N-(4′-Cyano-4-methyl-biphenyl-3-yl)-4-methoxy-benzenesulfonamide] | < 20% | – | < 500 nM | – | – | < 500 nM
Cc1ccc(S(=O)(=O)Nc2cc(-c3ccc(C#N)c(C)c3)ccc2C)cc1 [Example 72, N-(4′-Cyano-4,3′-dimethyl-biphenyl-3-yl)-4-methyl-benzenesulfonamide] | < 20% | – | < 500 nM | < 500 nM | – | –
COc1ccc(S(=O)(=O)Nc2cc(-c3csc(C#N)c3)ccc2C)cc1 [Example 73, N-[5-(5-Cyano-thiophen-3-yl)-2-methyl-phenyl]-4-methoxy-benzenesulfonamide] | – | < 500 nM | < 500 nM | – | < 500 nM | –
